Common to all, as to type: physicochemical
A short description of data set [1]: Absorption properties of the terbium complexes. As to conditions: 0.01M TRIS/HCl buffer at pH = 7.0. The text has this: By way of example, all of the absorption and emission properties of the terbium complexes synthesized from ligands (I-1) to (I-4) in accordance with the invention are summarized in Table 1 below: […]
The nature of data set [2]: Stability of the terbium complexes in various buffers (luminescence half-life τ). The text has this:
By way of example, the stability of the terbium complexes synthesized from ligands (I-1) to (I-4) in accordance with the invention in various buffers is given in Table 2 below. By way of comparison, Table 2 also gives the stability of a terbium complex TbL4 of the prior art corresponding to the following formula: […]

Data set [3] is described as follows: Emission properties: luminescence half-life τ and luminescence quantum yield φ in H2O and D2O. Particulars: for Emission τ (luminescence half-life): error estimated ±5%; for Emission φ (luminescence quantum yield): error estimated ±15%. The text has this:
The complexes according to the invention have varied applications, depending on the nature of the substituents of the pyridyl group of the ligand.
By way of example, all of the absorption and emission properties of the terbium complexes synthesized from ligands (I-1) to (I-4) in accordance with the invention are summarized in Table 1 below:
The parameters φ and τ represent, respectively, the luminescence quantum yields and the luminescence half-lives. They may be measured in water and in D2O.

SMILES strings stand for the structures. Values joined by “and” are separate entries in the source; they are usually repeats but may differ in a detail not shown here. Equal entries are not always repeated.

For the compound `CCOP(=O)([O-])CN(CC(=O)[O-])Cc1ccn(-c2cc(C#Cc3cc(OCCOC)c(C#CCCCCC(=O)[O-])cc3OCCOC)cc(-n3ccc(CN(CC(=O)[O-])CP(=O)([O-])OCC)n3)n2)n1.[Na+].[Na+].[Na+].[Na+].[Na+].[Tb+3]` [Tb(I-6)], in data set [1], the “Absorption λabs” value was 275 nm and 328 nm. Further, the τ was 2.6 ms in data set [2] (H2O, estimated error ±5%); 2.6 ms in data set [2] (Phosphate 0.1M, pH = 7.0); 2.3 ms in data set [2] (Tris 50 mM-Serum 50%, pH = 7.0); 2.4 ms in data set [2] (Tris 0.1M, pH = 7.0); 2.5 ms in data set [2] (Tris 0.1M-EDTA 10 mM, pH = 7.0); 2.3 ms in data set [2] (Tris 0.1M-KF 400 mM, pH = 7.0). Moreover, the “Emission τ (luminescence half-life)” value in data set [3] (D2O) was 0.0032 s; in data set [3] (H2O), 0.0026 s. Moreover, the “Emission φ (luminescence quantum yield)” value in data set [3] (D2O) is given as 35%; in data set [3] (H2O), 26%.

On to `CCOP(=O)([O-])CN(Cc1ccn(-c2cc(C#Cc3cc(OCCOC)c(C#CCCCCC(=O)[O-])cc3OCCOC)cc(-n3ccc(CN(CP(=O)([O-])OCC)CP(=O)([O-])OCC)n3)n2)n1)CP(=O)([O-])OCC.[Na+].[Na+].[Na+].[Na+].[Na+].[Tb+3]` [Tb(I-8)], for which, in data set [1], the “Absorption λabs” value is 272 nm and 327 nm. In addition, the τ in data set [2] (H2O, estimated error ±5%) is 3.2 ms; in data set [2] (Phosphate 0.1M, pH = 7.0), 3.2 ms; in data set [2] (Tris 50 mM-Serum 50%, pH = 7.0), 3.0 ms; in data set [2] (Tris 0.1M, pH = 7.0), 3.1 ms; in data set [2] (Tris 0.1M-EDTA 10 mM, pH = 7.0) it was 3.1 ms; in data set [2] (Tris 0.1M-KF 400 mM, pH = 7.0) it was 3.0 ms. Moreover, the entries for the “Emission τ (luminescence half-life)” value in data set [3] (D2O) and in data set [3] (H2O) were 0.0035 s and 0.0032 s, respectively. Also, the “Emission φ (luminescence quantum yield)” value is 30% in data set [3] (D2O) and 26% in data set [3] (H2O).

As for `CCOP(=O)([O-])CN(CC(=O)[O-])Cc1ccn(-c2cc(C#Cc3cc(OCCOC)c(C(=O)NCCCC(=O)[O-])cc3OCCOC)cc(-n3ccc(CN(CC(=O)[O-])CP(=O)([O-])OCC)n3)n2)n1.[Na+].[Na+].[Na+].[Na+].[Na+].[Tb+3]` [Tb(I-5)], in data set [1], the “Absorption λabs” value is 283 nm and 328 nm. Moreover, the τ in data set [2] (H2O, estimated error ±5%) is recorded as 2.6 ms; in data set [2] (Phosphate 0.1M, pH = 7.0), 2.6 ms; in data set [2] (Tris 50 mM-Serum 50%, pH = 7.0), 2.5 ms; in data set [2] (Tris 0.1M, pH = 7.0) it was 2.6 ms; in data set [2] (Tris 0.1M-EDTA 10 mM, pH = 7.0), 2.6 ms; in data set [2] (Tris 0.1M-KF 400 mM, pH = 7.0), 2.5 ms. Also, the quantum yields result in data set [3] is reported as “virtually quantitative”. The “Emission τ (luminescence half-life)” value in data set [3] (D2O) is 0.0031 s; in data set [3] (H2O) it was 0.0026 s. The “Emission φ (luminescence quantum yield)” value in data set [3] (D2O) was 96%; in data set [3] (H2O) it was 88%.

These data come from patent publication US9328088B2, “Luminescent probes for biological labeling and imaging, and process for preparing the same” (CENTRE NATIONAL DE LA RECHERCHE SCIENTIFIQUE, priority 2011, dated 2016).
